Experimental data published in PMC10504751, “Chalcone/1,3,4-Oxadiazole/Benzimidazole hybrids as novel anti-proliferative agents inducing apoptosis and inhibiting EGFR & BRAFV^600E” (BMC Chemistry, 2023).

Key:
786-0 = test: NCI one-dose SRB anti-proliferative screen; assay type: cell-based; conditions: Homo sapiens; 786-0 (Renal Cancer), NCI one dose 10 µM; read-out: Cell growth inhibition %
Procedure, shortened: (§1)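 Colorimetric sulforhodamine B assay after treatment with compound at one concentration, 10 µM.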

A549/ATCC = test: NCI one-dose SRB anti-proliferative screen; assay type: cell-based; conditions: Homo sapiens; A549/ATCC (Non-Small Cell Lung Cancer), NCI one dose 10 µM; read-out: Cell growth inhibition %
Procedure, shortened: as §1

SK-MEL-2 = test: NCI one-dose SRB anti-proliferative screen; assay type: cell-based; conditions: Homo sapiens; SK-MEL-2 (Melanoma), NCI one dose 10 µM; read-out: Cell growth inhibition %
Procedure, shortened: as §1

HS 578T = test: NCI one-dose SRB anti-proliferative screen; assay type: cell-based; conditions: Homo sapiens; HS 578T (Breast Cancer), NCI one dose 10 µM; read-out: Cell growth inhibition %
Procedure, shortened: as §1

NCI-H23 = test: NCI one-dose SRB anti-proliferative screen; assay type: cell-based; conditions: Homo sapiens; NCI-H23 (Non-Small Cell Lung Cancer), NCI one dose 10 µM; read-out: Cell growth inhibition %
Procedure, shortened: as §1

HOP-92 = test: NCI one-dose SRB anti-proliferative screen; assay type: cell-based; conditions: Homo sapiens; HOP-92 (Non-Small Cell Lung Cancer), NCI one dose 10 µM; read-out: Cell growth inhibition %
Procedure, shortened: as §1

OVCAR-3 = test: NCI one-dose SRB anti-proliferative screen; assay type: cell-based; conditions: Homo sapiens; OVCAR-3 (Ovarian Cancer), NCI one dose 10 µM; read-out: Cell growth inhibition %
Procedure, shortened: as §1

MCF7 = test: NCI one-dose SRB anti-proliferative screen; assay type: cell-based; conditions: Homo sapiens; MCF7 (Breast Cancer), NCI one dose 10 µM; read-out: Cell growth inhibition %
Procedure, shortened: as §1

SF-295 = test: NCI one-dose SRB anti-proliferative screen; assay type: cell-based; conditions: Homo sapiens; SF-295 (CNS Cancer), NCI one dose 10 µM; read-out: Cell growth inhibition %
Procedure, shortened: as §1

HCT-15 = test: NCI one-dose SRB anti-proliferative screen; assay type: cell-based; conditions: Homo sapiens; HCT-15 (Colon Cancer), NCI one dose 10 µM; read-out: Cell growth inhibition %
Procedure, shortened: as §1

U251 = test: NCI one-dose SRB anti-proliferative screen; assay type: cell-based; conditions: Homo sapiens, U-251; U251 (CNS Cancer), NCI one dose 10 µM; read-out: Cell growth inhibition %
Procedure, shortened: as §1

IGROV1 = test: NCI one-dose SRB anti-proliferative screen; assay type: cell-based; conditions: Homo sapiens, IGROV-1; IGROV1 (Ovarian Cancer), NCI one dose 10 µM; read-out: Cell growth inhibition %
Procedure, shortened: as §1

SNB-75 = test: NCI one-dose SRB anti-proliferative screen; assay type: cell-based; conditions: Homo sapiens; SNB-75 (CNS Cancer), NCI one dose 10 µM; read-out: Cell growth inhibition %
Procedure, shortened: as §1

NCI-H322M = test: NCI one-dose SRB anti-proliferative screen; assay type: cell-based; conditions: Homo sapiens; NCI-H322M (Non-Small Cell Lung Cancer), NCI one dose 10 µM; read-out: Cell growth inhibition %
Procedure, shortened: as §1

CAKI-1 = test: NCI one-dose SRB anti-proliferative screen; assay type: cell-based; conditions: Homo sapiens; CAKI-1 (Renal Cancer), NCI one dose 10 µM; read-out: Cell growth inhibition %
Procedure, shortened: as §1

A498 = test: NCI one-dose SRB anti-proliferative screen; assay type: cell-based; conditions: Homo sapiens; A498 (Renal Cancer), NCI one dose 10 µM; read-out: Cell growth inhibition %
Procedure, shortened: as §1

KM12 = test: NCI one-dose SRB anti-proliferative screen; assay type: cell-based; conditions: Homo sapiens; KM12 (Colon Cancer), NCI one dose 10 µM; read-out: Cell growth inhibition %
Procedure, shortened: as §1

SF-268 = test: NCI one-dose SRB anti-proliferative screen; assay type: cell-based; conditions: Homo sapiens; SF-268 (CNS Cancer), NCI one dose 10 µM; read-out: Cell growth inhibition %
Procedure, shortened: as §1

DU-145 = test: NCI one-dose SRB anti-proliferative screen; assay type: cell-based; conditions: Homo sapiens; DU-145 (Prostate Cancer), NCI one dose 10 µM; read-out: Cell growth inhibition %
Procedure, shortened: as §1

MDA-MB-231/ATCC = test: NCI one-dose SRB anti-proliferative screen; assay type: cell-based; conditions: Homo sapiens; MDA-MB-231/ATCC (Breast Cancer), NCI one dose 10 µM; read-out: Cell growth inhibition %
Procedure, shortened: as §1

EGFR = target: T1, EGFR (Homo sapiens, UniProt P00533); test: EGFR-TK inhibitory assay; assay type: biochemical; conditions: read-out: EGFR Inhibition IC50 ± SEM
T1 construct: EGFR cytoplasmic domain (EGFR-CD, amino acids 645–1186); His6 (N); made in house; host or cells: Sf-9 insect cells (baculovirus; pBlueBacHis2B / pFASTBacHTc)
T1 sequence (P00533 669-1210): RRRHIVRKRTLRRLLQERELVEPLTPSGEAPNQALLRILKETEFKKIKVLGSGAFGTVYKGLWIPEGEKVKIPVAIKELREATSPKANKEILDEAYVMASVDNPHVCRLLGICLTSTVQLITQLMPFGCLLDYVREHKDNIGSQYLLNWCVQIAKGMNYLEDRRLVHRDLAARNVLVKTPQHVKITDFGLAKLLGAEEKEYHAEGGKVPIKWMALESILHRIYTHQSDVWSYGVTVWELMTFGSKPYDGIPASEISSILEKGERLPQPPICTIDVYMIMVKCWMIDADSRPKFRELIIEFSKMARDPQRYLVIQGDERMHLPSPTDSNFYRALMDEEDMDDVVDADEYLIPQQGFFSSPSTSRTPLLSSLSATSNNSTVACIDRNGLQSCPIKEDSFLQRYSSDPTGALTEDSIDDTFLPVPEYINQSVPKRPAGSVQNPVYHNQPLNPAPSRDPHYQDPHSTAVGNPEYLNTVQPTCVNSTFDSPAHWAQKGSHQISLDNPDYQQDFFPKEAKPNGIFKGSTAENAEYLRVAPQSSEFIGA

BRAF^V600E = test: biochemical
BRAF^V600E, sequence (P28028 whole entry V585E): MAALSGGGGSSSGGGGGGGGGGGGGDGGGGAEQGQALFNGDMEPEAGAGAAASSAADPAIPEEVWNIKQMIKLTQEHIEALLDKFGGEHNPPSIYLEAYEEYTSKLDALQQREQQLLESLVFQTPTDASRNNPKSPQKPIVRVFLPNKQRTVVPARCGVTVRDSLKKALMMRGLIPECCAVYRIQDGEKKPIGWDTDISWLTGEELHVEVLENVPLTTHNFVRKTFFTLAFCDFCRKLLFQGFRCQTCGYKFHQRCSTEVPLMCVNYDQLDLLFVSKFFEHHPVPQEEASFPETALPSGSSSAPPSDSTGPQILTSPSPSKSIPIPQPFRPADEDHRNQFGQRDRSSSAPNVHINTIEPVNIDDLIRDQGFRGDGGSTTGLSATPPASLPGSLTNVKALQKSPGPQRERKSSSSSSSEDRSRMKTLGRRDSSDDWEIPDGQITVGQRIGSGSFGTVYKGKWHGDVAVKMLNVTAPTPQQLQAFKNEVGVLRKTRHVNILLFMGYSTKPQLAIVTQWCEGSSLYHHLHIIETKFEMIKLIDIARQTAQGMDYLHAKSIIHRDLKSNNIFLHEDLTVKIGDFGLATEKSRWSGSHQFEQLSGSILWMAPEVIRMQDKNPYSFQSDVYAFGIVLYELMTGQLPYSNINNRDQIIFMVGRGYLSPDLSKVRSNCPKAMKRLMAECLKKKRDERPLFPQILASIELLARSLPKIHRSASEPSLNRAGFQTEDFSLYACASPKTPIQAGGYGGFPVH
Procedure: To further denature the protein, heat (70° C) was applied for 5 min. […] 10 µL of each reaction was loaded into the precast plates and electrophoresis was allowed to proceed. After completion of electrophoresis, the front part of the precast gel plate (holding hot ATP) was cut and afterwards cast-off. The dried gel was developed using a phosphor screen.

SMILES	inhibition at 10 µM (786-0) [%]	inhibition at 10 µM (A549/ATCC) [%]	inhibition at 10 µM (SK-MEL-2) [%]	inhibition at 10 µM (HS 578T) [%]	inhibition at 10 µM (NCI-H23) [%]	inhibition at 10 µM (HOP-92) [%]	inhibition at 10 µM (OVCAR-3) [%]	inhibition at 10 µM (MCF7) [%]	inhibition at 10 µM (SF-295) [%]	inhibition at 10 µM (HCT-15) [%]	inhibition at 10 µM (U251) [%]	inhibition at 10 µM (IGROV1) [%]	inhibition at 10 µM (SNB-75) [%]	inhibition at 10 µM (NCI-H322M) [%]	inhibition at 10 µM (CAKI-1) [%]	inhibition at 10 µM (A498) [%]	inhibition at 10 µM (KM12) [%]	inhibition at 10 µM (SF-268) [%]	inhibition at 10 µM (DU-145) [%]	inhibition at 10 µM (MDA-MB-231/ATCC) [%]	further results
COc1ccc(-c2nc3cc(-c4nnc(SCC(=O)Nc5ccc(C(=O)/C=C/c6ccccc6)cc5)o4)ccc3[nH]2)cc1OC [Compound 7p, 2-{5-[2-(3,4-Dimethoxyphenyl)-1 H-benzo[d]imidazol-5-yl]-1,3,4-oxadiazol-2-ylthio}-N-{4-[(E)-3-phenylacryloyl]phenyl}acetamide]	0.75	0	0	3.94	0.22	1.64	0	21.7	5.09	8.17	6.84	3.63	9.72	0	2.96	0	0.98	0	0	8.78	IC50 (EGFR): 3.5 ± 0.3 µM; IC50 (BRAF^V600E): 4.2 ± 0.3 µM
COc1ccc(-c2nc3cc(-c4nnc(SCC(=O)Nc5ccc(C(=O)/C=C/c6ccc(Cl)cc6)cc5)o4)ccc3[nH]2)cc1OC [Compound 7q, 2-{5-[2-(3,4-Dimethoxyphenyl)-1 H-benzo[d]imidazol-5-yl]-1,3,4-oxadiazol-2-ylthio}-N-{4-[(E)-3-(4-chlorophenyl)acryloyl]phenyl}acetamide]	0	0	0	3.98	0	0	0	24.1	1.96	2.92	0	8.1	0	4.21	0	0	0	0	0	4.84	IC50 (EGFR): 3.9 ± 0.3 µM; IC50 (BRAF^V600E): 4.7 ± 0.3 µM
COc1cc(-c2nc3cc(-c4nnc(SCC(=O)Nc5ccc(C(=O)/C=C/c6ccc(Cl)cc6)cc5)o4)ccc3[nH]2)cc(OC)c1OC [Compound 7v, 2-{5-[2-(3,4,5-Trimethoxyphenyl)-1 H-benzo[d]imidazol-5-yl]-1,3,4-oxadiazol-2-ylthio}-N-{4-[(E)-3-(4-chlorophenyl)acryloyl]phenyl}acetamide]	9.2	0	0	12.1	0	17.8	2.13	40.9	2.25	13.1	22.4	18.4	14.7	3.77	2.81	16.8	9.06	0.81	0	8.4	IC50 (EGFR): 2.8 ± 0.3 µM; IC50 (BRAF^V600E): 3.1 ± 0.2 µM
